Laboratory results taken from BindingDB's records for doi:10.1021/acs.jmedchem.9b01161 (Research Triangle Institute, 2019).

Assays:
Cannabinoid receptor 1 [1] = target: T1, Cannabinoid receptor 1 (Homo sapiens, UniProt P21554); assay: Allosteric modulator activity at human CB1 receptor expressed in HEK293 cell membranes assessed as suppression of 100 nM CP55,940-induced [35S]GTPgammaS binding incubated for 60 mins by scintillation counting method
Cannabinoid receptor 1 [2] = target: T1, Cannabinoid receptor 1; assay: Allosteric modulator activity at human CB1 receptor expressed in CHO-RD-HGA16 cells co-expressing Galpha16 assessed as suppression of 100 nM CP55,940-induced calcium mobilization pre-incubated for 15 mins by Calcium 5 dye based FLIPR assay

T1 sequence (P21554 whole entry): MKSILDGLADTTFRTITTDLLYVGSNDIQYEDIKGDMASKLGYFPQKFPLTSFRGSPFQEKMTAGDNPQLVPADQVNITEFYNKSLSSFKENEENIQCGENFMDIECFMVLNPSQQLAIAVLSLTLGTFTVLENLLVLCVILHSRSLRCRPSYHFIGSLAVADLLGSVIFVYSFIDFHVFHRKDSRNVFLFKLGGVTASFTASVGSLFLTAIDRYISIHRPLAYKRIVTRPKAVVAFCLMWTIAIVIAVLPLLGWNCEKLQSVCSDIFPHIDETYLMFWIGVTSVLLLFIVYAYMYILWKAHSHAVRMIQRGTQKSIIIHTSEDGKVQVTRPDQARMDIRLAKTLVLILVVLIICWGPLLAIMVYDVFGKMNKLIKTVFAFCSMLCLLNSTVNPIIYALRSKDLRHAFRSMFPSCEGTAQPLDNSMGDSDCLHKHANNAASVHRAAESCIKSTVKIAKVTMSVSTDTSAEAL

O=C(Nc1ccc(Cl)cc1)N[C@H]1C[C@H]1c1ccccc1
IC50 (Cannabinoid receptor 1 [1]): > 10 µM
IC50 (Cannabinoid receptor 1 [2]): > 10 µM

COc1ccc(-c2cccc(N3CCCC3)n2)cc1NC(=O)Nc1ccc(Cl)cc1
IC50 (Cannabinoid receptor 1 [1]): > 10 µM
